Measured values reported in ChEMBL document CHEMBL4414633, “Investigation of the Factors That Dictate the Preferred Orientation of Lexitropsins in the Minor Groove of DNA” (J Med Chem, 2019).
Calls of active or inactive are those of the source. No cut-off for these calls is given here.

Legend:
[1] = Binding affinity to synthetic d(5'-GCGAGTACTCGC-3') DNA sequence assessed as change in heat by ITC assay
[2] = Binding affinity to synthetic d(5'-GCGACTAGTCGC-3') DNA sequence assessed as change in heat by ITC assay
[3] = Binding affinity to synthetic d(CGACTAGTCG)2 DNA sequence by NMR analysis

Row | Activity [1] | Activity [2] | Activity [3] | Structure (SMILES)
1 | inactive | inactive |  | CC(C)c1sc(NC(=O)CCCN(C)C)nc1C(=O)Nc1cc(C(=O)Nc2cc(C(N)=O)n(C)c2)n(C)c1
2 |  |  | Active | CC(C)c1sc(NC(=O)c2cc(NC(=O)c3cc(NC=O)cn3C)cn2C)nc1C(=O)NCCCN(C)C
